Test results from patent US7491819B1 (priority 2004, dated 2009).

Each compound was assayed against T1, HIV-integrase (Human immunodeficiency virus type 1 group M subtype B, UniProt P12497) (assay: HIV-Integrase Inhibition Activity (SPA bead strand-transfer assay)). Conditions: Table 1; read-out: Activity (HIV-integrase inhibition, IC50 class).
T1 construct: Recombinant integrase (0.26 ng) was incubated with the beads
Type: biochemical
How it was run: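 Strand-transfer read-out: CPM from P33-labelled target DNA (0.1 fmol) joined to bead-bound biotin substrate DNA (5 pmole), with EDTA stop at 10 mM final. Integrase (0.26 ng) prebound to streptavidin SPA beads 90 min, 37° C, and washed before adding inhibitor.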
`CC1(C)OCCn2c1nc(C(=O)NCc1ccc(F)c(Br)c1)c(O)c2=O` [Example 30, Pyrimido[2,1-c][1,4]oxazine-2-carboxamide, N-[(3-bromo-4-fluorophenyl)methyl]-4,6,7,9-tetrahydro-3-hydroxy-9,9-dimethyl-4-oxo-] gave an IC50 of 0.002 to 0.1 µM. With `CC1(C)OCCn2c1nc(C(=O)NCc1ccc(Cl)c(Cl)c1)c(O)c2=O` [Example 221, Pyrimido[2,1-c][1,4]oxazine-2-carboxamide, N-[(3,4-dichlorophenyl)methyl]-4,6,7,9-tetrahydro-3-hydroxy-9,9-dimethyl-4-oxo-] the IC50 was 0.002 to 0.1 µM. For `Cc1ccc(F)c(CNC(=O)c2nc3n(c(=O)c2O)CCOC3(C)C)c1F` [Example 275, Pyrimido[2,1-c][1,4]oxazine-2-carboxamide, N-[(2,6-difluoro-3-methylphenyl)methyl]-4,6,7,9-tetrahydro-3-hydroxy-9,9-dimethyl-4-oxo-], the IC50 was 0.002 to 0.1 µM. `CC1(C)OCCn2c1nc(C(=O)NCc1ccccn1)c(O)c2=O` [Example 141, Pyrimido[2,1-c][1,4]oxazine-2-carboxamide, 4,6,7,9-tetrahydro-3-hydroxy-9,9-dimethyl-4-oxo-N-(2-pyridinylmethyl)-] showed an IC50 of 0.002 to 0.1 µM. `CN1CCN(C(=O)c2ccc(-c3ccccc3CNC(=O)c3nc4n(c(=O)c3O)CCOC4(C)C)cc2)CC1` [Example 196, Pyrimido[2,1-c][1,4]oxazine-2-carboxamide, 4,6,7,9-tetrahydro-3-hydroxy-9,9-dimethyl-N-[[4′-[(4-methyl-1-piperazinyl)carbonyl][1,1′-biphenyl]-2-yl]methyl]-4-oxo-] gave an IC50 of 0.002 to 0.1 µM. Compound `CC1(C)OCCn2c1nc(C(=O)NCc1ccc(F)cc1-c1ccc(=O)[nH]c1)c(O)c2=O` [Example 79, Pyrimido[2,1-c][1,4]oxazine-2-carboxamide, N-[[2-(1,6-dihydro-6-oxo-3-pyridinyl)-4-fluorophenyl]methyl]-4,6,7,9-tetrahydro-3-hydroxy-9,9-dim ethyl-4-oxo-] has an IC50 of 0.002 to 0.1 µM. `CCC1(CC)OCCn2c1nc(C(=O)NCc1ccc(F)c(C)c1)c(O)c2=O` [Example 43] was tested, and the IC50 was 0.002 to 0.1 µM. For `CCC1OCCn2c1nc(C(=O)NCc1ccc(F)c(Cl)c1)c(O)c2=O` (stereo not drawn) [Example 14, Pyrimido[2,1-c][1,4]oxazine-2-carboxamide, N-[(3-chloro-4-fluorophenyl)methyl]-9-ethyl-4,6,7,9-tetrahydro-3-hydroxy-4-oxo-], the IC50 was 0.002 to 0.1 µM. `Cc1ccc(CNC(=O)c2nc3n(c(=O)c2O)CCOC3(C)C)cc1C` [Example 31, Pyrimido[2,1-c][1,4]oxazine-2-carboxamide, N-[(3,4-dimethylphenyl)methyl]-4,6,7,9-tetrahydro-3-hydroxy-9,9-dimethyl-4-oxo-] gave an IC50 of 0.002 to 0.1 µM. Work on `Cc1ccc(-c2ccccc2CNC(=O)c2nc3n(c(=O)c2O)CCOC3(C)C)cc1` [Example 162, Pyrimido[2,1-c][1,4]oxazine-2-carboxamide, 4,6,7,9-tetrahydro-3-hydroxy-9,9-dimethyl-N-[(4′-methyl[1,1′-biphenyl]-2-yl)methyl]-4-oxo-] yielded an IC50 of 0.002 to 0.1 µM. `CC1(C)OCCn2c1nc(C(=O)NCc1ccc(F)cc1-c1cc(Br)no1)c(O)c2=O` [Example 212, Pyrimido[2,1-c][1,4]oxazine-2-carboxamide, N-[[2-(3-bromo-5-isoxazolyl)-4-fluorophenyl]methyl]-4,6,7,9-tetrahydro-3-hydroxy-9,9-dimethyl-4-oxo-] was tested, and the IC50 was 0.002 to 0.1 µM. Work on `CC1(C)OCCn2c1nc(C(=O)NCc1ccc(F)cc1-c1csnn1)c(O)c2=O` [Example 84, Pyrimido[2,1-c][1,4]oxazine-2-carboxamide, N-[[4-fluoro-2-(1,2,3-thiadiazol-4-yl)phenyl]methyl]-4,6,7,9-tetrahydro-3-hydroxy-9,9-dimethyl-4-oxo-] yielded an IC50 of 0.002 to 0.1 µM. `CC1(C)OCCn2c1nc(C(=O)NCc1ccc(F)cc1C(F)(F)F)c(O)c2=O` [Example 246, Pyrimido[2,1-c][1,4]oxazine-2-carboxamide, N-[[4-fluoro-2-(trifluoromethyl)phenyl]methyl]-4,6,7,9-tetrahydro-3-hydroxy-9,9-dimethyl-4-oxo-] was tested, and the IC50 was 0.002 to 0.1 µM. `Cc1cnc(CNC(=O)c2nc3n(c(=O)c2O)CCOC3(C)C)cn1` [Example 142, Pyrimido[2,1-c][1,4]oxazine-2-carboxamide, 4,6,7,9-tetrahydro-3-hydroxy-9,9-dimethyl-N-[(5-methylpyrazinyl)methyl]-4-oxo-] gave an IC50 of 0.002 to 0.1 µM. Compound `CCC1OCCn2c1nc(C(=O)NCc1ccc(F)cc1-n1cncn1)c(O)c2=O` (stereo not drawn) [Example 16, Pyrimido[2,1-c][1,4]oxazine-2-carboxamide, 9-ethyl-N-[[4-fluoro-2-(1H-1,2,4-triazol-1-yl)phenyl]methyl]-4,6,7,9-tetrahydro-3-hydroxy-4-oxo-] has an IC50 of 0.002 to 0.1 µM. For `Cc1ccc(CNC(=O)c2nc3n(c(=O)c2O)CCOC3(C)C)c(C)c1` [Example 37, Pyrimido[2,1-c][1,4]oxazine-2-carboxamide, N-[(2,4-dimethylphenyl)methyl]-4,6,7,9-tetrahydro-3-hydroxy-9,9-dimethyl-4-oxo-], the IC50 was 0.002 to 0.1 µM. Work on `CN(C)CCN(C)C(=O)c1ncn(-c2cc(F)ccc2CNC(=O)c2nc3n(c(=O)c2O)CCOC3(C)C)n1` [Example 71, Pyrimido[2,1-c][1,4]oxazine-2-carboxamide, N-[[2-[3-[[[2-(dimethylamino)ethyl]methylamino]carbonyl]-1H-1,2,4-triazol-1-yl]-4-fluorophenyl]methyl]-4,6,7,9-tetrahydro-3-hydroxy-9,9-dimethyl-4-oxo-] yielded an IC50 of 0.002 to 0.1 µM. In the case of `CC1(C)OCCn2c1nc(C(=O)NCc1ccccc1-c1ccc(CC#N)cc1)c(O)c2=O` [Example 189, Pyrimido[2,1-c][1,4]oxazine-2-carboxamide, N-[[4′-(cyanomethyl)[1,1′-biphenyl]-2-yl]methyl]-4,6,7,9-tetrahydro-3-hydroxy-9,9-dimethyl-4-oxo-], the IC50 is reported as 0.002 to 0.1 µM. `CC1(C)OCCCn2c1nc(C(=O)NCc1ccc(F)cc1-n1cncn1)c(O)c2=O` [Example 117, 6H-Pyrimido[2,1-c][1,4]oxazepine-2-carboxamide, N-[[4-fluoro-2-(1H-1,2,4-triazol-1-yl)phenyl]methyl]-4,7,8,10-tetrahydro-3-hydroxy-10,10-dimethyl-4-oxo-] showed an IC50 of 0.002 to 0.1 µM. In the case of `CON(Cc1ccc(F)cc1)C(=O)c1nc2n(c(=O)c1O)CCOC2(C)C` [Example 214, Pyrimido[2,1-c][1,4]oxazine-2-carboxamide, N-[(4-fluorophenyl)methyl]-4,6,7,9-tetrahydro-3-hydroxy-N-methoxy-9,9-dimethyl-4-oxo-], the IC50 is reported as greater than 1 µM. `CC1(C)OCCn2c1nc(C(=O)NCc1ccccc1-c1ccc(F)c(F)c1)c(O)c2=O` [Example 188, Pyrimido[2,1-c][1,4]oxazine-2-carboxamide, N-[(3′,4′-difluoro[1,1′-biphenyl]-2-yl)methyl]-4,6,7,9-tetrahydro-3-hydroxy-9,9-dimethyl-4-oxo-] was tested, and the IC50 was 0.002 to 0.1 µM. `Cc1cccc(-c2ccccc2CNC(=O)c2nc3n(c(=O)c2O)CCOC3(C)C)c1` [Example 163, Pyrimido[2,1-c][1,4]oxazine-2-carboxamide, 4,6,7,9-tetrahydro-3-hydroxy-9,9-dimethyl-N-[(3′-methyl[1,1′-biphenyl]-2-yl)methyl]-4-oxo-] gave an IC50 of 0.002 to 0.1 µM. In the case of `CC1(C)OCCn2c1nc(C(=O)NCc1cc(F)ccc1-n1cncn1)c(O)c2=O` [Example 54, Pyrimido[2,1-c][1,4]oxazine-2-carboxamide, N-[[5-fluoro-2-(1H-1,2,4-triazol-1-yl)phenyl]methyl]-4,6,7,9-tetrahydro-3-hydroxy-9,9-dimethyl-4-oxo-e], the IC50 is reported as 0.002 to 0.1 µM. Work on `CC1(C)OCCn2c1nc(C(=O)NCc1cc(Br)c(F)cc1Br)c(O)c2=O` [Example 201, Pyrimido[2,1-c][1,4]oxazine-2-carboxamide, N-[(4-fluoro-2,5-dibromophenyl)methyl]-4,6,7,9-tetrahydro-3-hydroxy-9,9-dimethyl-4-oxo] yielded an IC50 of 0.002 to 0.1 µM. Compound `COc1ccc(-c2ccccc2CNC(=O)c2nc3n(c(=O)c2O)CCOC3(C)C)c(OC)n1` [Example 154, Pyrimido[2,1-c][1,4]oxazine-2-carboxamide, N-[[2-(2,6-dimethoxy-3-pyridinyl)phenyl]methyl]-4,6,7,9-tetrahydro-3-hydroxy-9,9-dimethyl-4-oxo-] has an IC50 of 0.002 to 0.1 µM. In the case of `CC(=O)OC[C@H]1CCC(=O)N1c1cc(F)ccc1CNC(=O)c1nc2n(c(=O)c1O)CCOC2(C)C` [Example 129, Pyrimido[2,1-c][1,4]oxazine-2-carboxamide, N-[[2-[(2R)-2-[(acetyloxy)methyl]-5-oxo-1-pyrrolidinyl]-4-fluorophenyl]methyl]-4,6,7,9-tetrahydro-3-hydroxy-9,9-dimethyl-4-oxo-], the IC50 is reported as 0.002 to 0.1 µM. With `CC1(C)OCCn2c1nc(C(=O)NCc1ccccc1N1CCOCC1)c(O)c2=O` [Example 260, Pyrimido[2,1-c][1,4]oxazine-2-carboxamide, 4,6,7,9-tetrahydro-3-hydroxy-9,9-dimethyl-N-[[2-(4-morpholinyl)phenyl]methyl]-4-oxo-] the IC50 was 0.002 to 0.1 µM. With `COc1cccc(-c2ccccc2CNC(=O)c2nc3n(c(=O)c2O)CCOC3(C)C)c1` [Example 164, Pyrimido[2,1-c][1,4]oxazine-2-carboxamide, 4,6,7,9-tetrahydro-3-hydroxy-N-[(3′-methoxy[1,1′-biphenyl]-2-yl)methyl]-9,9-dimethyl-4-oxo-] the IC50 was 0.002 to 0.1 µM. `CC1(C)OCCn2c1nc(C(=O)NCc1ccc3c(c1)OCCO3)c(O)c2=O` [Example 230, Pyrimido[2,1-c][1,4]oxazine-2-carboxamide, N-[(2,3-dihydro-1,4-benzodioxin-6-yl)methyl]-4,6,7,9-tetrahydro-3-hydroxy-9,9-dimethyl-4-oxo-] was tested, and the IC50 was 0.002 to 0.1 µM. For `CN(C)CCNC(=O)c1ncn(-c2cc(F)ccc2CNC(=O)c2nc3n(c(=O)c2O)CCOC3(C)C)n1` [Example 70, Pyrimido[2,1-c][1,4]oxazine-2-carboxamide, N-[[2-[3-[[[2-(dimethylamino)ethyl]amino]carbonyl]-1H-1,2,4-triazol-1-yl]-4-fluorophenyl]methyl]-4,6,7,9-tetrahydro-3-hydroxy-9,9-dimethyl-4-oxo-], the IC50 was 0.002 to 0.1 µM.
